Measured values published in paper PMC9376960, “Ruthenium(II)–Tris-pyrazolylmethane Complexes Inhibit Cancer Cell Growth by Disrupting Mitochondrial Calcium Homeostasis” (Journal of Medicinal Chemistry, 2022).

Assays:
RD = experiment: MTT antiproliferative assay; assay type: cell-based, human; details: 72 h, mean ± SD
Description: All of the cell lines were cultivated in DMEM medium (high glucose 4.5 g L^–1, PAA, Pasching, Austria) supplemented with gentamycin (50 μg mL^–1, Serva, Heidelberg, Germany) and 10% heat-inactivated fetal bovine serum (PAA). The medium for MRC5pd30 cells was further supplemented by 1% nonessential amino acids (Sigma-Aldrich, Prague, Czech Republic). All cells were cultured as adherent monolayers in a humidified incubator at 37 °C in a 5% CO2 atmosphere and subcultured twice a week with an appropriate plating density. In vitro antiproliferative activity of Ru complexes was determined by the MTT or, alternatively, SRB assay as already described,[84] after 72 h of incubation of cells with various concentrations of the Ru complex. The reported IC50 values are an average of three independent experiments, each consisting of three replicates per concentration.

CHO-K1 = experiment: MTT assay, wild-type cells; assay type: cell-based, Chinese hamster; details: 72 h
Description: (§1) The human cervical carcinoma HeLa cells and human colorectal carcinoma cells HCT116 were kindly supplied by Professor B. Keppler, University of Vienna (Austria). Human rhabdomyosarcoma RD cells were purchased from the American Type Culture Collection (ATCC, Manassas, VA). Human breast cancer MCF-7 cells, human skin melanoma 518A2 cells, and human MRC5pd30 cells derived from normal lung tissue were purchased from the European Collection of Authenticated Cell Cultures (ECACC) (Salisbury, U.K.). Chinese hamster ovary CHO-K1 cell line (wild type) and its derivative MMC-2 carrying the ERCC3/XPB mutation (NER-deficient) cell line were kindly supplied by Dr. […], Cancer Research Institute, Slovak Academy of Sciences, Bratislava (Slovakia). In vitro antiproliferative activity of Ru complexes was determined by the MTT or, alternatively, SRB assay as already described,[84] after 72 h of incubation of cells with various concentrations of the Ru complex. The reported IC50 values are an average of three independent experiments, each consisting of three replicates per concentration.

MMC-2 = experiment: MTT assay, NER-deficient cells; assay type: cell-based, Chinese hamster; details: 72 h
Description: as §1

HCT116 (3D) = experiment: Cytotoxicity in 3D spheroids (colonospheres), Cell Titer-Glo 3D; assay type: cell-based, human
Description: A spontaneous spheroid formation was used to generate colonospheres derived from the HCT116 cell line. The HCT116 cells were seeded on 96-well ultralow attachment plates (1400 cells/well) and cultivated in a tumor sphere-forming medium (DMEM/F12, supplemented with B27 (Invitrogen), BSA, bFGF (10 ng mL^–1), and EGF (20 ng mL^–1)) for 4 days. After the incubation period, colonospheres were treated with Ru complexes for another 3 days. The viability of colonospheres was determined by the Cell Titer-Glo 3D cell viability assay (Promega) according to the manufacturer’s instructions. The reported IC50 values are the average of three independent experiments, each consisting of three replicates per concentration level. Bright-field images of the spheroids were taken as well to determine the effect on the morphology of the spheroids.

MCF-7 = tested on: MCF-7; parameters: method as in PMID 30740808; details: MTT, 72 h; cited from earlier work
HeLa = tested on: HeLa; parameters: method as in PMID 30740808; details: MTT, 72 h; cited from earlier work
518A2 = tested on: 518A2; parameters: method as in PMID 32555811; details: MTT, 72 h; cited from earlier work
HCT116 = tested on: HCT116; parameters: method as in PMID 30740808; details: MTT, 72 h; cited from earlier work
MRC5pd30 = tested on: MRC5pd30; parameters: method as in PMID 30740808; details: MTT, 72 h; cited from earlier work
DNA = tested on: DNA; parameters: method as in PMID 25888926, PMID 28623355; details: cited from earlier work

Which IC50 (RD) does the source give for `N.N.[Cl][Pt][Cl]` [cisplatin] here?
Its IC50 is 4.6 ± 0.3 µM.

What about the IC50 (CHO-K1) of the same compound?
Its IC50 is 54 ± 6 µM.

And the IC50 (MMC-2)?
The IC50 was 5.5 ± 0.8 µM.

What about the “effect on the morphology of 3D spheroids” value (HCT116 (3D); 20 µM, 72 h, bright-field images) of the same compound?
Its value is “heterogeneous morphology with several dissociated cell clumps”.

What about the IC50 (HCT116 (3D); Cell Titer-Glo, spheroids, 72 h of treatment) of the same compound?
Its IC50 is 44.6 ± 1.8 µM.

And the IC50 (MCF-7)?
Its IC50 is 13 ± 3 µM.

And the IC50 (HeLa)?
The IC50 was 14 ± 3 µM.

What about the IC50 (518A2) of the same compound?
Its IC50 is 2.6 ± 0.7 µM.

And the IC50 (HCT116)?
The IC50 was 8 ± 1 µM.

What about the IC50 (MRC5pd30) of the same compound?
The IC50 was 11.7 ± 0.8 µM.

What about the “intracellular platinum that reaches the nucleus and binds to DNA” value (DNA) of the same compound?
The value was 2–3%.
